Measurements: patent US20170037125A1, “COMBINATION OF A PD-1 ANTAGONIST AND AN IDO1 INHIBITOR FOR TREATING CANCER” (INCYTE CORPORATION, priority 2014, published 2017)
Marks after values point to notes of the source that are not given here.

Key:
[1] = test system: selected advanced or metastatic solid tumors; assay: Phase 1 dose-escalation clinical study of INCB024360 in combination with MK-3475: tumor response (modified RECIST v1.1); format: in vivo, human; conditions: for CR, patients / NE (not evaluable), patients / PD, patients / PR, patients: preliminary
Procedure: Phase 1 of the study is a dose-escalation phase and Phase 2 is randomized, double-blind, and placebo-controlled. Phase 1 of the study is conducted in subjects with selected advanced or metastatic solid tumors. Phase 2 of the study is conducted in subjects with advanced NSCLC, e.g., Stage IIIB, IV, or recurrent NSCLC. […] The Phase 1 dose-escalation phase includes cohorts of subjects treated with INCB024360 twice daily (BID) at initial doses of 25 mg BID, 50 mg BID, and 100 mg BID in combination with MK-3475 at 2 mg/kg every 3 weeks. One treatment cycle consists of 21 days. A minimum of 3 subjects are enrolled and treated in each cohort, and all 3 subjects are observed for a minimum of 42 days (6 weeks) before the subsequent cohort begins enrollment. […] The study subject cohorts are summarized as follows: For treatment, INCB024360 is self-administered orally BID and continued BID during the 21-day cycle for an every-3-week dose schedule of MK-3475. The MTD of INCB024360 (or PAD) defined during Phase 1 is used for Phase 2. All BID doses are taken morning and evening, approximately 12 hours apart without respect to food. If a dose is missed by more than 4 hours, that dose is skipped and is resumed at the scheduled time. […] Study subject participation averages about 6 months. The Study Schedule and Procedures for the Phase 1/2 study are as follows: […] Liver function test monitoring occurs weekly during the first 6 weeks of study treatment during Phase 1 and then is tested every 3 weeks thereafter and in Phase 2 for subjects who remain on study treatment. Assessment of tumor size (by magnetic resonance imaging or computed tomography scan) is performed at screening or baseline (before beginning therapy), every 9 weeks for 18 months, and then every 12 weeks thereafter until disease progression. Disease progression is defined as progression confirmed by a second, consecutive assessment at least 4 weeks apart with the option for continuing treatment while awaiting radiologic confirmation of progression where feasible, and where subjects are clinically stable, defined as the following: absence of signs and symptoms (including worsening of laboratory values) indicating disease progression, no decline in ECOG performance status, absence of rapid progression of disease, and absence of progressive tumors at critical anatomical sites (e.g., cord compression) requiring urgent alternative medical intervention. […] In accordance with the protocol, INCB024360 was administered in combination with MK-3475. MK-3475 was intravenously administered at a dose of 2 mg/kg as described.

[2] = Phase 1 dose-escalation clinical study of INCB024360 in combination with MK-3475: adverse events; format: in vivo
Procedure: This Example describes an ongoing Phase 1/2 clinical study to evaluate the safety, tolerability and efficacy of the inventive combination of MK-3475 and INCB024360 in subjects presenting with various solid tumors and advanced non-small cell lung cancer (NSCLC). Phase 1 of the study is a dose-escalation phase and Phase 2 is randomized, double-blind, and placebo-controlled. Phase 1 of the study is conducted in subjects with selected advanced or metastatic solid tumors. Phase 2 of the study is conducted in subjects with advanced NSCLC, e.g., Stage IIIB, IV, or recurrent NSCLC. The dose-escalation phase (Phase 1) is open-label and is designed to identify the maximum tolerated dose (MTD) or pharmacologically acceptable doses (PAD) of INCB024360 in combination with MK-3475 in subjects with Stage IIIB, IV, or recurrent NSCLC, melanoma, transitional cell carcinoma of the genitourinary (GU) tract, renal cell cancer, triple negative breast cancer, adenocarcinoma of the endometrium or squamous cell carcinoma of the head and neck who have disease progression on at least 1 line of therapy for advanced or metastatic cancer.
The Phase 1 dose-escalation phase includes cohorts of subjects treated with INCB024360 twice daily (BID) at initial doses of 25 mg BID, 50 mg BID, and 100 mg BID in combination with MK-3475 at 2 mg/kg every 3 weeks. One treatment cycle consists of 21 days. A minimum of 3 subjects are enrolled and treated in each cohort, and all 3 subjects are observed for a minimum of 42 days (6 weeks) before the subsequent cohort begins enrollment. Additional subjects are enrolled in a cohort to achieve the minimum of 3 evaluable subjects if dropouts or dose interruptions or reductions occur that result in a subject being nonevaluable for dose limiting toxicities (DLTs). When the MTD or PAD is reached, additional subjects are enrolled for a total of 9 subjects, but the additional subjects are treated with MK-3475 at 200 mg every 3 weeks and the MTD or PAD of INCB024360 to further evaluate safety and confirm it as the recommended Phase 2 dose (RP2D). The study subject cohorts are summarized as follows:
For treatment, INCB024360 is self-administered orally BID and continued BID during the 21-day cycle for an every-3-week dose schedule of MK-3475. The MTD of INCB024360 (or PAD) defined during Phase 1 is used for Phase 2. All BID doses are taken morning and evening, approximately 12 hours apart without respect to food. If a dose is missed by more than 4 hours, that dose is skipped and is resumed at the scheduled time. MK-3475 is administered at 2 mg/kg or 200 mg intravenously (IV) over a 30-minute period on Day 1 of an every-3-week cycle, with no intrasubject dose escalation. Study subject participation averages about 6 months.
Primary endpoints of the Phase 1 study are as follows: Safety and tolerability are assessed by monitoring frequency, duration and severity of AEs, through physical examinations, by evaluating changes in vital signs and electrocardiograms, and through clinical laboratory blood and urine sample evaluations. Primary endpoints of the Phase 2 study are as follows: Progression-free survival, defined as the time from randomization until the earliest date of disease progression, as determined by investigator assessment of objective radiographic disease assessments per modified RECIST v1.1, or death due to any cause, if occurring sooner than progression. Imaging is archived for possible retrospective central confirmation of disease progression and response.
Table 4 below presents preliminary data of adverse events (AEs), including immune-related AEs, reported in the described study.

[3] = molecular target: human indoleamine 2,3-dioxygenasae (IDO) (Homo sapiens, UniProt P14902); conditions: human IDO enzyme assay; see U.S. Pat. No. 8,088,803; cited from earlier work
[4] = INCB024360 25 mg BID (n = 4) with MK-3475 2 mg/kg IV
[5] = INCB024360 50 mg BID (n = 4) with MK-3475 2 mg/kg IV
[6] = subjects evaluable for response, both cohorts, with MK-3475
[7] = Grade 3 or 4, 25 mg BID (n = 4)
[8] = Grade 3 or 4, 50 mg BID (n = 8)

Sequence of human indoleamine 2,3-dioxygenasae (IDO) (P14902 whole entry): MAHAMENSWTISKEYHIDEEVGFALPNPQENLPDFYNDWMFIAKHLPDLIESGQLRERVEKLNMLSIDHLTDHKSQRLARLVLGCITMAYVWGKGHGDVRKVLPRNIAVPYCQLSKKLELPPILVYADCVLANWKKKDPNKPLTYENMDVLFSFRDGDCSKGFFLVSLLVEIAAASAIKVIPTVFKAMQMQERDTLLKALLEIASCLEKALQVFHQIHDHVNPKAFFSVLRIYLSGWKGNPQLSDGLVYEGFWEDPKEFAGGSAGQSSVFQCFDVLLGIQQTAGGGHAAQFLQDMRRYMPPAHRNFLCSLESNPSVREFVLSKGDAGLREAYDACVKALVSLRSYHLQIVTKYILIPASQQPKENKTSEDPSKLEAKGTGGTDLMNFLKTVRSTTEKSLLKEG

## NS(=O)(=O)NCCNc1nonc1C(=NO)Nc1ccc(F)c(Br)c1 [Compound 1, 4-({2-[(aminosulfonyl)amino]ethyl}amino)-N-(3-bromo-4-fluorophenyl)-N′-hydroxy-1,2,5-oxadiazole-3-carboximidamide]
[1]; 25 mg BID Cohort, stable, with MK-3475 2 mg/kg IV
  response of a subject having melanoma (MEL): stable disease (SD)
[1]; 25 mg BID Cohort, with MK-3475 2 mg/kg IV
  response of a subject having transitional cell carcinoma (TCC) in bladder: partial response (PR)
[1]; 50 mg BID Cohort, first melanoma subject, with MK-3475 2 mg/kg IV
  response of a subject with melanoma (MEL): complete response (CR)
[1]; 50 mg BID cohort, further melanoma subject, with MK-3475 2 mg/kg IV
  response of a subject with melanoma (MEL): partial response (PR)
[1]; 25 and 50 mg BID cohorts pooled, only subjects evaluable for response (5/7), with MK-3475
  total best overall response (per modified RECIST v1.1): 71%
[1]; 25 and 50 mg BID cohorts pooled, only subjects evaluable for response (7/7), with MK-3475
  disease control rate: 100%
[1]; [4]
  CR, patients: 0 n (%)
  NE (not evaluable), patients: 0 n (%)
  PD, patients: 0 n (%)
  PR, patients: 2 (50%) n (%)
[1]; [5]
  CR, patients: 1 (33%) n (%)
  NE (not evaluable), patients: 1** n (%)
  PD, patients: 0 n (%)
  PR, patients: 2 (67%) n (%)
[1]; [6]
  Disease Control Rate (DCR): 7/7
  Objective response rate (ORR): 4/7
[2]; 50 mg BID cohort
  Grade 3 rash related to dose limiting toxicity (DLT): one
[2]; All Grades, 25 mg BID (n = 4)
  Cough (AE): 2 n (%)
  DVT (IJ) (AE; Deep Vein Thrombosis, Internal Jugular): 1 n (%)
  Diarrhea (AE): 2 n (%)
  Dyspnea (AE): 1 n (%)
  Fall (AE): 0 n (%)
  Fatigue (AE): 0 n (%)
  Headache (AE): 1 n (%)
  Mild Infusion Reaction (AE): 0 n (%)
  Nausea (AE): 2 n (%)
  Pruritis (AE): 1 n (%)
  Rash (AE): 0 n (%)
[2]; All Grades, 50 mg BID (n = 8)
  Cough (AE): 0 n (%)
  DVT (IJ) (AE; Deep Vein Thrombosis, Internal Jugular): 0 n (%)
  Diarrhea (AE): 0 n (%)
  Dyspnea (AE): 0 n (%)
  Fall (AE): 1 n (%)
  Fatigue (AE): 1 n (%)
  Headache (AE): 0 n (%)
  Mild Infusion Reaction (AE): 1 n (%)
  Nausea (AE): 1 n (%)
  Pruritis (AE): 0 n (%)
  Rash (AE): 2 n (%)
[2]; All Grades, Total (N = 12)
  Cough (AE): 2 n (%)
  DVT (IJ) (AE; Deep Vein Thrombosis, Internal Jugular): 1 n (%)
  Diarrhea (AE): 2 n (%)
  Dyspnea (AE): 1 n (%)
  Fall (AE): 1 n (%)
  Fatigue (AE): 1 n (%)
  Headache (AE): 1 n (%)
  Mild Infusion Reaction (AE): 1 n (%)
  Nausea (AE): 3 n (%)
  Pruritis (AE): 1 n (%)
  Rash (AE): 2 n (%)
[2]; [7]
  Cough (AE): 0 n (%)
  DVT (IJ) (AE; Deep Vein Thrombosis, Internal Jugular): 0 n (%)
  Dyspnea (AE): 0 n (%)
  Fall (AE): 0 n (%)
  Fatigue (AE): 0 n (%)
  Headache (AE): 0 n (%)
  Mild Infusion Reaction (AE): 0 n (%)
  Nausea (AE): 0 n (%)
  Pruritis (AE): 0 n (%)
  Rash (AE): 0 n (%)
[2]; [8]
  Cough (AE): 0 n (%)
  DVT (IJ) (AE; Deep Vein Thrombosis, Internal Jugular): 0 n (%)
  Dyspnea (AE): 0 n (%)
  Fatigue (AE): 0 n (%)
  Headache (AE): 0 n (%)
  Mild Infusion Reaction (AE): 0 n (%)
  Nausea (AE): 0 n (%)
  Pruritis (AE): 0 n (%)
  Rash (AE): 1 n (%)
[2]; Grade 3 or 4, 50 mg BID (n = 8), not related to study treatment
  Fall (AE): 1 n (%)
[2]; Grade 3 or 4, Total (N = 12)
  Cough (AE): 0 n (%)
  DVT (IJ) (AE; Deep Vein Thrombosis, Internal Jugular): 0 n (%)
  Dyspnea (AE): 0 n (%)
  Fall (AE): 1 n (%)
  Fatigue (AE): 0 n (%)
  Headache (AE): 0 n (%)
  Mild Infusion Reaction (AE): 0 n (%)
  Nausea (AE): 0 n (%)
  Pruritis (AE): 0 n (%)
  Rash (AE): 1 n (%)

## NS(=O)(=O)NCCNc1nonc1C(=NO)Nc1ccc(F)c(C(F)(F)F)c1 [Compound 3, 4-({2-[(aminosulfonyl)amino]ethyl}amino)-N-[4-fluoro-3-(trifluoromethyl)phenyl]-N′-hydroxy-1,2,5-oxadiazole-3-carboximidamide]
[3]
  IC50: < 100 nM
